Data from US9132140B2, “Boronic acid derivatives and therapeutic uses thereof” (Rempex Pharmaceuticals, Inc., priority 2013, dated 2015).

Tests used:
Type in all cases: cell-based, Klebsiella pneumoniae
[1] = system: KP1081 (NDM-1, TEM-1, SHV-11, CMY-6, CTX-M-15)
From the text: (§1) Several strains simultaneously expressing both class A and class B carbapenemases, which were constructed using conjugation, were also included in the panel.

KP1065 (VIM-1, SHV-11) = system: KP1065 (VIM-1, SHV-11)
From the text: as §1

KP1064 (KPC TEM SHV) = system: KP1064 (KPC TEM SHV)
From the text: as §1

KP1014 (Vim-1, TEM, SHV) = system: KP1014 (Vim-1, TEM, SHV)
From the text: as §1

KP1059 (VIM-1, SHV-11) = system: KP1059 (VIM-1, SHV-11)
From the text: as §1

[2] = system: KPM1347 (NDM-1 SHV CTX-M-15)
From the text: as §1

KPM1110 (NDM, KPC) = system: KPM1110 (NDM, KPC)
From the text: as §1

KPM1123 (KPC-2 TEM SHV) = system: KPM1123 (KPC-2 TEM SHV)
From the text: as §1

[3] = system: KP1084 (KPC-3, SHV-11, TEM-1)
From the text: as §1

KP1004 (KPC TEM SHV) = system: KP1004 (KPC TEM SHV)
From the text: as §1

KPM1109 (NDM, KPC) = system: KPM1109 (NDM, KPC)
From the text: as §1

KPM1099 (NDM, KPC) = system: KPM1099 (NDM, KPC)
From the text: as §1

KP1070 (KPC TEM SHV) = system: KP1070 (KPC TEM SHV)
From the text: as §1

KPM1344 (VIM-1) = system: KPM1344 (VIM-1)
From the text: as §1

KPM1345 (VIM-1 SHV) = system: KPM1345 (VIM-1 SHV)
From the text: as §1

Nn1cnnc1S[C@H]1Cc2cccc(C(=O)O)c2OB1O [Compound 14, (R)-3-(4-amino-4H-1,2,4-triazol-3-ylthio)-2-hydroxy-3,4-dihydro-2H-benzo[e][1,2]oxaborinine-8-carboxylic acid]
Imipenem + 14 MIC [1]: X (key: X: MIC of less than 1 μg/mL; Y: MIC of 1 μg/mL to 10 μg/mL; Z: MIC of greater than 10 μg/mL)
Meropenem + 14 MIC [1]: X (key: X: MIC of less than 1 μg/mL; Y: MIC of 1 μg/mL to 10 μg/mL; Z: MIC of greater than 10 μg/mL)
Imipenem + 14 MIC (KP1065 (VIM-1, SHV-11)): X (key: X: MIC of less than 1 μg/mL; Y: MIC of 1 μg/mL to 10 μg/mL; Z: MIC of greater than 10 μg/mL)
Meropenem + 14 MIC (KP1065 (VIM-1, SHV-11)): Z (key: X: MIC of less than 1 μg/mL; Y: MIC of 1 μg/mL to 10 μg/mL; Z: MIC of greater than 10 μg/mL)
Imipenem + 14 MIC (KP1064 (KPC TEM SHV)): X (key: X: MIC of less than 1 μg/mL; Y: MIC of 1 μg/mL to 10 μg/mL; Z: MIC of greater than 10 μg/mL)
Meropenem + 14 MIC (KP1064 (KPC TEM SHV)): Y (key: X: MIC of less than 1 μg/mL; Y: MIC of 1 μg/mL to 10 μg/mL; Z: MIC of greater than 10 μg/mL)
Imipenem + 14 MIC (KP1014 (Vim-1, TEM, SHV)): X (key: X: MIC of less than 1 μg/mL; Y: MIC of 1 μg/mL to 10 μg/mL; Z: MIC of greater than 10 μg/mL)
Meropenem + 14 MIC (KP1014 (Vim-1, TEM, SHV)): X (key: X: MIC of less than 1 μg/mL; Y: MIC of 1 μg/mL to 10 μg/mL; Z: MIC of greater than 10 μg/mL)
Imipenem + 14 MIC (KP1059 (VIM-1, SHV-11)): Y (key: X: MIC of less than 1 μg/mL; Y: MIC of 1 μg/mL to 10 μg/mL; Z: MIC of greater than 10 μg/mL)
Meropenem + 14 MIC (KP1059 (VIM-1, SHV-11)): Y (key: X: MIC of less than 1 μg/mL; Y: MIC of 1 μg/mL to 10 μg/mL; Z: MIC of greater than 10 μg/mL)
Imipenem + 14 MIC [2]: X (key: X: MIC of less than 1 μg/mL; Y: MIC of 1 μg/mL to 10 μg/mL; Z: MIC of greater than 10 μg/mL)
Meropenem + 14 MIC [2]: X (key: X: MIC of less than 1 μg/mL; Y: MIC of 1 μg/mL to 10 μg/mL; Z: MIC of greater than 10 μg/mL)
Imipenem + 14 MIC (KPM1110 (NDM, KPC)): X (key: X: MIC of less than 1 μg/mL; Y: MIC of 1 μg/mL to 10 μg/mL; Z: MIC of greater than 10 μg/mL)
Meropenem + 14 MIC (KPM1110 (NDM, KPC)): X (key: X: MIC of less than 1 μg/mL; Y: MIC of 1 μg/mL to 10 μg/mL; Z: MIC of greater than 10 μg/mL)
Imipenem + 14 MIC (KPM1123 (KPC-2 TEM SHV)): X (key: X: MIC of less than 1 μg/mL; Y: MIC of 1 μg/mL to 10 μg/mL; Z: MIC of greater than 10 μg/mL)
Meropenem + 14 MIC (KPM1123 (KPC-2 TEM SHV)): X (key: X: MIC of less than 1 μg/mL; Y: MIC of 1 μg/mL to 10 μg/mL; Z: MIC of greater than 10 μg/mL)
Imipenem + 14 MIC [3]: Y (key: X: MIC of less than 1 μg/mL; Y: MIC of 1 μg/mL to 10 μg/mL; Z: MIC of greater than 10 μg/mL)
Meropenem + 14 MIC [3]: Y (key: X: MIC of less than 1 μg/mL; Y: MIC of 1 μg/mL to 10 μg/mL; Z: MIC of greater than 10 μg/mL)
Imipenem + 14 MIC (KP1004 (KPC TEM SHV)): X (key: X: MIC of less than 1 μg/mL; Y: MIC of 1 μg/mL to 10 μg/mL; Z: MIC of greater than 10 μg/mL)
Meropenem + 14 MIC (KP1004 (KPC TEM SHV)): X (key: X: MIC of less than 1 μg/mL; Y: MIC of 1 μg/mL to 10 μg/mL; Z: MIC of greater than 10 μg/mL)
Imipenem + 14 MIC (KPM1109 (NDM, KPC)): X (key: X: MIC of less than 1 μg/mL; Y: MIC of 1 μg/mL to 10 μg/mL; Z: MIC of greater than 10 μg/mL)
Meropenem + 14 MIC (KPM1109 (NDM, KPC)): Y (key: X: MIC of less than 1 μg/mL; Y: MIC of 1 μg/mL to 10 μg/mL; Z: MIC of greater than 10 μg/mL)
Imipenem + 14 MIC (KPM1099 (NDM, KPC)): Y (key: X: MIC of less than 1 μg/mL; Y: MIC of 1 μg/mL to 10 μg/mL; Z: MIC of greater than 10 μg/mL)
Meropenem + 14 MIC (KPM1099 (NDM, KPC)): Y (key: X: MIC of less than 1 μg/mL; Y: MIC of 1 μg/mL to 10 μg/mL; Z: MIC of greater than 10 μg/mL)
Imipenem + 14 MIC (KP1070 (KPC TEM SHV)): X (key: X: MIC of less than 1 μg/mL; Y: MIC of 1 μg/mL to 10 μg/mL; Z: MIC of greater than 10 μg/mL)
Meropenem + 14 MIC (KP1070 (KPC TEM SHV)): X (key: X: MIC of less than 1 μg/mL; Y: MIC of 1 μg/mL to 10 μg/mL; Z: MIC of greater than 10 μg/mL)
Imipenem + 14 MIC (KPM1344 (VIM-1)): X (key: X: MIC of less than 1 μg/mL; Y: MIC of 1 μg/mL to 10 μg/mL; Z: MIC of greater than 10 μg/mL)
Meropenem + 14 MIC (KPM1344 (VIM-1)): Y (key: X: MIC of less than 1 μg/mL; Y: MIC of 1 μg/mL to 10 μg/mL; Z: MIC of greater than 10 μg/mL)
Imipenem + 14 MIC (KPM1345 (VIM-1 SHV)): X (key: X: MIC of less than 1 μg/mL; Y: MIC of 1 μg/mL to 10 μg/mL; Z: MIC of greater than 10 μg/mL)
Meropenem + 14 MIC (KPM1345 (VIM-1 SHV)): X (key: X: MIC of less than 1 μg/mL; Y: MIC of 1 μg/mL to 10 μg/mL; Z: MIC of greater than 10 μg/mL)
